Experimental data taken from patent US20130158098A1, “Alkenyl Substituted Cycloaliphatic Compounds as Chemical Inducers of Proximity” (priority 2010, published 2013).
“Also recorded” adds a separate entry of the source.

Assays:
[1] = target: T1, VP16-PYLcs and Gal4 DBD-ABIcs (Arabidopsis thaliana, UniProt Q8VZS8); test: ABA-induced GFP reporter activation in various cell lines; type: cell-based; conditions: 100 μM, 24 h; CHO, HEK 293, Cos7, NIH3T3, TC1 cells
T1 construct: HA (from the reverse primer); expressed in transfected cells; host or cells: CHO; also HEK 293/293T, NIH3T3, COS7, B35, Jurkat, E14, TC1, MEF
T1 sequence (Q8VZS8 33-209): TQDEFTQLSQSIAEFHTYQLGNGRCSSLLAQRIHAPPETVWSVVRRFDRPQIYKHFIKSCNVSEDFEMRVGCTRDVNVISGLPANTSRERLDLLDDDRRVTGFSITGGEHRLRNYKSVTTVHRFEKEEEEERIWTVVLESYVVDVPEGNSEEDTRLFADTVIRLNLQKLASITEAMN
T1 sequence (P49597 126-423 partner): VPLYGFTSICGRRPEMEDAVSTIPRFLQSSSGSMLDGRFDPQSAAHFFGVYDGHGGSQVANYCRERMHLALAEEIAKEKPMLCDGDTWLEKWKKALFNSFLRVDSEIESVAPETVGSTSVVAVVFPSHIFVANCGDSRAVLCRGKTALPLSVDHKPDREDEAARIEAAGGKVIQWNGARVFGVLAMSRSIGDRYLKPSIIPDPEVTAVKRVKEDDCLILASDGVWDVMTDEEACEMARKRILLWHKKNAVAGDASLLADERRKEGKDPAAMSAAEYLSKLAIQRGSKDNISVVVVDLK
Excerpt: Activation construct: A fragment of PYL1 (one of PYR/PYL/RCAR members) (aa 33-209, also referred to as “PYLcs”) was linked to a transcriptional activation domain and a fragment of ABI1 (one of PP2C members) (aa 126-423, SEQ ID NO:2, also referred to as “ABIcs”) was linked to a DNA binding domain using recombinant DNA methods. In the constructs illustrated in FIG. 1 and FIG. 2, PYL1 (“PYLcs”) is fused to the VP16 activation domain and ABI1 (“ABIcs”) is fused to the Gal4 DNA binding domain. These two regulatory elements are linked by IRES and driven by the SV40 early promoter. Reporter constructs: Full length Luciferase is driven by Fos gene minimal promoter with 5 copies of Gal4 DNA binding sites immediately upstream of Fos promoter. GFP reporter is driven by IL2 minimal promoter with 5×Gal4 DNA binding sites upstream.
ABA regulated transcriptional activation is applicable to various cell lines from different origins besides CHO cells, as shown in FIG. 7. […] 100 μM of ABA was then added to the cell culture and cells were observed under fluorescence microscope for GFP expression after another 24 h.

[2] = ABA stability in human serum (luciferase biofunctional readout); type: in vitro ADME
Description: (§1) FIG. 3C provides the results of a stability test of ABA in cell culture conditions. CHO cells were pre-transfected with the activation and reporter DNA constructs for 24 hours. 100 μM ABA was then added to the culture and cells were assayed for luciferase activity after 10 hours. During the 10-hour incubation, the cell culture media were replaced with media containing freshly added ABA every 1, 2.5, 5 hour or no replacement. FIG. 4A illustrates the results of an experiment in which human serum pre-incubated ABA was used to induce luciferase transcription. ABA was incubated with pure non-heat inactivated human serum at 37° C. for indicated time period. ABA containing serum was then added to the CHO cell culture to a final 100 μM ABA concentration for 25 hours and cells were assayed for luciferase activity. The cells were pre-transfected with the activation and reporter DNA constructs for 24 hours. FIG. 4B illustrates the results of an experiment in which fetal bovine serum pre-incubated ABA was used to induce luciferase transcription. ABA was incubated with pure heat inactivated fetal bovine serum at 37° C. for indicated time period. ABA containing serum was then added to the CHO cell culture to a final 100 μM ABA concentration for 10 hours and cells were assayed for luciferase activity. The cells were pre-transfected with the activation and reporter DNA constructs for 24 hours.
(§2) In plants, ABA had been reported to be unstable due to active enzymatic degradation (Cutler, A. J. and Krochko, J. E. (1999) Formation and breakdown of ABA. Trends Plant Sci. 4, 472-478). […] The activity of residual ABA in the serum was measured by its ability to induce the transcriptional activation of the luciferase reporter in cells expressing the ABA-activator cassette. […] Using this assay, the bioavailability in mice was evaluated. […]

[3] = ABA stability in fetal bovine serum (luciferase biofunctional readout); type: in vitro ADME; conditions: 37° C.
Description: as §1, with “FIG. 4B illustrates the results of an experiment in which fetal bovine serum pre-incubated ABA was used to induce luciferase transcription. ABA was incubated with pure heat inactivated fetal bovine serum at 37° C. for indicated time period. ABA containing serum was then added to the CHO cell culture to a final 100 μM ABA concentration for 10 hours and cells were assayed for luciferase activity. The cells were pre-transfected with the activation and reporter DNA constructs for 24 hours.” left out
as §2

[4] = test system: T cells isolated from spleens of C57BL/6J mice; test: Lymphocyte proliferation assay; type: cell-based, mouse; conditions: anti-CD3 and anti-CD28 stimulation, 72 hours
Description: Naïve T cells were isolated from spleens of C57BL/6J mice with MACS T cell isolation kit (Miltenyi Biotec). Isolated T cells were stimulated for 72 hours at 37° C. with plate-bound monoclonal antibodies against CD3 (10 μg/ml) and CD28 (2 μg/ml) before cell count measurements.

[5] = subchronic toxicity studies; cited from earlier work

In the case of CC1=CC(=O)CC(C)(C)C1(O)/C=C/C(C)=C/C(=O)O (centres unmarked) [ABA, abscisic acid], the GFP reporter expression [1] is reported as “only expressed after ABA was added”, the “reduction in ability to induce transcription of luciferase” value ([2]; pure human serum, 37° C., up to 48 hours) is reported as “no significant reduction” and the “time ABA is stable in human serum” value ([2]; pure non-heat inactivated human serum, 37° C.) is reported as “at least 46 hours”. The stability in serum ([2]; serum, over 48 hours) was “stable”, the “reduction in ability to induce transcription of luciferase” value ([3]; pure fetal bovine serum, up to 48 hours) was “no significant reduction” and the “stability in fetal calf serum” value ([3]; pure heat inactivated fetal bovine serum) was “stable”. The “effect upon proliferation induced by antigen receptor signaling” value [4] was “No statistically significant effect; also recorded: did not have an adverse effect” and the “no observable adverse effect level (NOAEL)” value [5] was 20,000 mg/kg per day.
